What is called MIC is the least concentration at which growth counts as inhibited. The ΔTm is the change in melting temperature against a reference sample.

The results in this text go back to ChEMBL document CHEMBL4184184, “Lead identification and optimization of bacterial glutamate racemase inhibitors” (Bioorg Med Chem, 2018).

≈ marks a conversion by molar mass, not a printed value. Calls of active or inactive are those of the source. The rule behind the calls is not given here.

In data set [1] the test system is Mycobacterium tuberculosis. Kind of data set: Antibacterial activity against Mycobacterium tuberculosis H37Rv after 1 week by MABA. It is filed as functional. Conditions: 168 h.
The nature of data set [2]: Cytotoxicity against mouse RAW264.7 cells assessed as growth inhibition at 25 uM after 48 hrs by MTT assay relative to control. It counts as cell-based. Conditions: read-out: GI.
In data set [3] the test system is Mycobacterium tuberculosis. The experiment in a line: Antibacterial activity against non replicating Mycobacterium tuberculosis H37Rv assessed as log reduction in bacterial count at 10 ug/ml incubated for 7 days followed by compound dilution measured after 4 weeks. It is filed as functional.
In data set [4] the test system is Mycobacterium tuberculosis. Kind of data set: Ratio of MBC to MIC for Mycobacterium tuberculosis H37Rv. It counts as functional.
Data set [5] relates to Mycobacterium tuberculosis. Kind of data set: Bacteriostatic activity against Mycobacterium tuberculosis H37Rv at 5 to 20 uM incubated up to 21 days. It counts as functional, organism-based.
For data set [6], the system named is Mycobacterium tuberculosis. Kind of data set: Antibiofilm activity against Mycobacterium tuberculosis H37Rv at 10 ug/ml after 1 week. It counts as functional.
In data set [7] the target is T1, Glutamate racemase (Mycobacterium tuberculosis (strain ATCC 25618 / H37Rv)) (UniProt P9WPW9).
T1 sequence (whole entry): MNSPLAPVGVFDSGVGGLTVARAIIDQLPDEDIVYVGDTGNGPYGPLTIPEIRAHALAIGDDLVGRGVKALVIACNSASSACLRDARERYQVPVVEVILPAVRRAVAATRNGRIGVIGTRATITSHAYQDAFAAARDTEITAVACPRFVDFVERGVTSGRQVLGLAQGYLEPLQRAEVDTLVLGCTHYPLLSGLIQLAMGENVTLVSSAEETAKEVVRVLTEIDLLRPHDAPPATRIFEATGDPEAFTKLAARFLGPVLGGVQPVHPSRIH
The experiment in a line: Binding affinity to Mycobacterium tuberculosis glutamate racemase assessed as change in melting temperature by SYPRO orange dye based fluorescence assay.

The subject of data set [8] is Mycobacterium tuberculosis. Kind of data set: Antibacterial activity against Mycobacterium tuberculosis H37Rv after 1 week in presence of efflux pump inhibitor verapamil by MABA. It is filed as functional. Conditions: 168 h. A general note: Alamar Blue is a resazurin reagent that responds to reducing activity.
Data set [9] has as its system Mycobacterium tuberculosis. The experiment in a line: Antibacterial activity against Mycobacterium tuberculosis H37Rv after 1 week in presence of efflux pump inhibitor piperine by MABA. It counts as functional. Particulars: 168 h.
In data set [10] the test system is Mycobacterium marinum. The experiment in a line: Antibacterial activity against Mycobacterium marinum ATCC BAA-535 infected in zebra fish assessed as log reduction in bacterial load at 5 mg/kg, po for 7 days. It counts as functional.
Data set [11] deals with T1, Glutamate racemase (Mycobacterium tuberculosis (strain ATCC 25618 / H37Rv)). Kind of data set: Non-competitive inhibition of Mycobacterium tuberculosis glutamate racemase assessed as change in melting temperature in presence of substrate D-glutamate by SYPRO orange dye based fluorescence assay.
Data set [12] shares this target. The experiment in a line: Non-competitive inhibition of Mycobacterium tuberculosis glutamate racemase assessed as change in melting temperature by SYPRO orange dye based fluorescence assay.
The test system of data set [13] is Mycobacterium marinum. The experiment in a line: Antibacterial activity against Mycobacterium marinum ATCC BAA-535 infected in zebra fish assessed as log reduction in bacterial load at 10 mg/kg, po for 7 days. It is filed as functional.
In data set [14] the test system is Mycobacterium tuberculosis. The experiment in a line: Bacteriostatic activity against Mycobacterium tuberculosis H37Rv assessed as reduction in bacterial count at 25 uM incubated up to 21 days relative to control. It is filed as functional.
For data set [15], the system named is Mycobacterium tuberculosis. The experiment in a line: Bactericidal activity against Mycobacterium tuberculosis H37Rv incubated up to 21 days. It is filed as functional, organism-based.

Regarding `FC(F)(F)c1ccc2sc(-c3cccc(NC(=S)NCc4ccccc4)c3)nc2c1`, in [1], the lowest concentration to inhibit growth (MIC) was 14.7 µM (≈ 6.52 µg/mL). In data set [2], the inhibition at 48 h, 25 µM worked out at 96.1%. The “log(activity)” value in [3] stood at 2.1; in data set [6], 1.8. The Ratio in data set [4] is on record as above 4. Further, the outcome in [5] was Active.
`N[C@H](CCC(=O)O)C(=O)O`: in [7], the ΔTm came to 2.4 °C.
Consider `FC(F)(F)c1ccc2sc(-c3cccc(NC(=S)Nc4ccccc4)c3)nc2c1`, for which the MIC was 14.7 µM (≈ 6.3 µg/mL) in data set [1], 1.84 µM in [8] and 14.6 µM in data set [9]. In addition, the inhibition at 48 h, 25 µM in [2] was found to be 28.1%.
As to `NNC(=O)c1ccncc1` [ISONIAZID], the MIC came to 0.72 µM (≈ 0.0987 µg/mL) in data set [1], 0.72 µM in [8] and 0.72 µM in [9]. Further, the entries for the “log(activity)” value (in data set [3]; in data set [6]; in the data set with Mycobacterium marinum [10]) were 1.1, 1 and 2.6, respectively.
Molecule `O=[N+]([O-])c1ccc(NC(=S)Nc2cccc(-c3nc4ccccc4s3)c2)cc1` had an MIC in data set [1] of 61.6 µM (≈ 25 µg/mL). The inhibition at 48 h, 25 µM in data set [2] came out at 98.2%.
In the case of `Cc1ccc(NC(=O)Nc2cccc(-c3nc4cc(C(F)(F)F)ccc4s3)c2)cc1`, the MIC in data set [1] stood at 58.6 µM (≈ 25 µg/mL). In addition, the inhibition at 48 h, 25 µM in data set [2] worked out at 22.5%.
Turning to `COc1ccc(NC(=O)Nc2cccc(-c3nc4cc(C(F)(F)F)ccc4s3)c2)cc1`, in [1], the MIC was 56.4 µM (≈ 25 µg/mL). Also, the inhibition at 48 h, 25 µM in data set [2] was 59.1%.
For `Cc1ccc(NC(=S)Nc2cccc(-c3nc4ccccc4s3)c2)cc1`, the ΔTm in [11] worked out at 4.7 °C; in data set [12] it was 3.9 °C. For the same molecule, the results for the MIC in [1], in data set [8] and in [9] were 16.6 µM (≈ 6.24 µg/mL), 8.29 µM and 16.6 µM, respectively. Besides, the inhibition at 48 h, 25 µM in data set [2] worked out at 17.5%. The “log(activity)” value in [3] is 2.1; in data set [6], 2; in the data set on Mycobacterium marinum [13] it was 3.5. Moreover, the Ratio in [4] is given as above 4. In addition, the outcome in data set [5] was Active.
Take `Fc1ccc(NC(=S)Nc2cccc(-c3nc4cc(C(F)(F)F)ccc4s3)c2)cc1`: the minimum inhibitory concentration (MIC) came out at 27.9 µM (≈ 12.5 µg/mL) in data set [1], 7.01 µM in [8] and 27.9 µM in data set [9]. In data set [2], the inhibition at 48 h, 25 µM came to 76.3%. Also, in [3], the “log(activity)” value is 2.1. Also, the Ratio in [4] is recorded as above 4. The result in [5] was Active.
Regarding `CC[C@@H](CO)NCCN[C@@H](CC)CO` [ETHAMBUTOL], the MIC worked out at 7.64 µM (≈ 1.56 µg/mL) in data set [1], 3.82 µM in [8] and 3.82 µM in data set [9].
`O=C(Nc1ccc(Cl)cc1)Nc1cccc(-c2nc3ccccc3s2)c1` returned an MIC in [1] of 65.9 µM (≈ 25 µg/mL). Besides, the inhibition at 48 h, 25 µM in data set [2] was found to be 30.1%.
As for `S=C(Nc1ccc(Cl)cc1)Nc1cccc(-c2nc3ccccc3s2)c1`, 2.09 µM (≈ 0.828 µg/mL) was the least that counted as inhibitory in data set [1] (MIC). The inhibition at 48 h, 25 µM in data set [2] turned out to be 58.4%.
As for `O=C(Nc1ccc(F)cc1)Nc1cccc(-c2nc3ccccc3s2)c1`, the ΔTm in data set [7] was 3.3 °C.
Consider `Cc1ccc(NC(=O)Nc2cccc(-c3nc4ccccc4s3)c2)cc1`, for which the MIC in data set [1] is 69.7 µM (≈ 25 µg/mL); in data set [8] it was 2.17 µM; in [9], 69.7 µM. Also, the inhibition at 48 h, 25 µM in data set [2] turned out to be 31.2%.
The molecule `O=C(Nc1ccc([N+](=O)[O-])cc1)Nc1cccc(-c2nc3cc(C(F)(F)F)ccc3s2)c1` registered an MIC in data set [1] of 54.7 µM (≈ 25.1 µg/mL). Moreover, the inhibition at 48 h, 25 µM in data set [2] was determined as 99.2%.
`O=C(Nc1ccc([N+](=O)[O-])cc1)Nc1cccc(-c2nc3ccccc3s2)c1`: the MIC in data set [1] was 8.09 µM (≈ 3.16 µg/mL); in data set [8], 2.04 µM; in data set [9], 8.09 µM. In addition, the inhibition at 48 h, 25 µM in data set [2] worked out at 42.1%. Moreover, the results for the “log(activity)” value in [3] and in data set [6] were 2.1 and 0.7, respectively. Besides, the Ratio in data set [4] is on record as below 4. Further, in data set [14], the “fold change (FC)” value is reported as above 3. Moreover, in data set [15], the Activity result was “Dose-dependent effect”.
Regarding `S=C(Nc1ccccc1)Nc1cccc(-c2nc3ccccc3s2)c1`, in [1], 69.2 µM (≈ 25 µg/mL) was the least that counted as inhibitory (MIC). In addition, in [2], the inhibition at 48 h, 25 µM was determined as 2.35%.
Turning to `CO[C@H]1/C=C/O[C@@]2(C)Oc3c(C)c(O)c4c(O)c(c(/C=N/N5CCN(C)CC5)c(O)c4c3C2=O)NC(=O)/C(C)=C\C=C\[C@H](C)[C@H](O)[C@@H](C)[C@@H](O)[C@@H](C)[C@H](OC(C)=O)[C@@H]1C` [RIFAMPIN], the MIC was determined as 0.15 µM (≈ 0.123 µg/mL) in data set [1], 0.15 µM in [8] and 0.15 µM in data set [9]. The “log(activity)” value is listed as 0.5 in [3] and 1.2 in [6].
In the case of `COc1ccc(NC(=O)Nc2cccc(-c3nc4ccccc4s3)c2)cc1`, in data set [1], the MIC was determined as 33.3 µM (≈ 12.5 µg/mL). Further, the inhibition at 48 h, 25 µM in [2] was found to be 56.1%.
In turn, `O=C(Nc1ccc(Cl)cc1)Nc1cccc(-c2nc3cc(C(F)(F)F)ccc3s2)c1` yielded an MIC in data set [1] of 55.9 µM (≈ 25 µg/mL). The inhibition at 48 h, 25 µM in data set [2] was determined as 45.7%.
For `O=[N+]([O-])c1ccc(NC(=S)Nc2cccc(-c3nc4cc(C(F)(F)F)ccc4s3)c2)cc1`, the values for the MIC in data set [1], in [8] and in [9] were 52.7 µM (≈ 25 µg/mL), 3.34 µM and 52.7 µM, respectively. The inhibition at 48 h, 25 µM in [2] turned out to be 18.4%.
With `Fc1ccc(NC(=S)Nc2cccc(-c3nc4ccccc4s3)c2)cc1`, the values for the MIC in data set [1], in [8] and in data set [9] were 2.15 µM (≈ 0.816 µg/mL), 2.15 µM and 2.15 µM, respectively. Further, in [2], the inhibition at 48 h, 25 µM is 98.2%.
In data set [1], `O=C(Nc1ccc(F)cc1)Nc1cccc(-c2nc3cc(C(F)(F)F)ccc3s2)c1` registered an MIC of 57.9 µM (≈ 25 µg/mL). In addition, in [2], the inhibition at 48 h, 25 µM was determined as 97.7%.
`O=C(Nc1ccccc1)Nc1cccc(-c2nc3ccccc3s2)c1` registered an MIC in [1] of 72.9 µM (≈ 25.2 µg/mL). The inhibition at 48 h, 25 µM in [2] was 97.2%.
In [1], `FC(F)(F)c1ccc2sc(-c3cccc(NC(=S)Nc4ccc(Cl)cc4)c3)nc2c1` yielded an MIC of 53.9 µM (≈ 25 µg/mL). Moreover, the inhibition at 48 h, 25 µM in data set [2] came out at 97.3%.
For the molecule `COc1c(N2C[C@@H]3CCCN[C@@H]3C2)c(F)cc2c(=O)c(C(=O)O)cn(C3CC3)c12` [MOXIFLOXACIN], the result in [3] was Active. For the same molecule, the “log(activity)” value came out at 1.8 in [6] and 2.5 in the data set with Mycobacterium marinum [13].
As for `O=C(Nc1ccccc1)Nc1cccc(-c2nc3cc(C(F)(F)F)ccc3s2)c1`, it took 3.76 µM (≈ 1.55 µg/mL) to inhibit growth in [1] (MIC). Also, the inhibition at 48 h, 25 µM in data set [2] stood at 40%.
Regarding `Cc1ccc(NC(=S)Nc2cccc(-c3nc4cc(C(F)(F)F)ccc4s3)c2)cc1`, the MIC in [1] was determined as 28.3 µM (≈ 12.5 µg/mL). Moreover, the inhibition at 48 h, 25 µM in [2] amounted to 97.1%.
For `S=C(NCc1ccccc1)Nc1cccc(-c2nc3ccccc3s2)c1`, the results for the MIC in data set [1], in [8] and in [9] were 66.6 µM (≈ 25 µg/mL), 2.12 µM and 66.6 µM, respectively. Also, the inhibition at 48 h, 25 µM in data set [2] was found to be 32.2%.
